Key:
[1] = Metabolic stability in human liver microsomes assessed as compound remaining after 30 mins; type: ADME, Microsome; details: read-out: Stability
[2] = Metabolic stability in mouse liver microsomes assessed as compound remaining; type: ADME, Microsome

- remaining at 0.5 h [1]: 4%
- Stability [2]: 1%
SMILES: CCC[C@@H](CCO)Nc1nc(N)nc2c3ccccc3n(Cc3cc(CNC[C@@H]4CCOC4)ccc3OC)c12

Reference: ChEMBL document CHEMBL6153060, “Structure-Based Design of Novel TLR7/8 Agonist Payloads Enabling an Immunomodulatory Conjugate Approach” (ACS Med Chem Lett, 2025)
